Source: patent US8785600B2, “Anti-GCC antibody molecules and related compositions and methods” (Millennium Pharmaceuticals, Inc., priority 2009, dated 2014)
“And” between values parts separate entries of the source, which are not always exact repeats. Identical values can stand only once.

Key:
CT26 hGCC/luc #32 cells = assay: Pilot efficacy study with naked antibody in CT26 hGCC/luc #32 disseminated model; details: for Lung weight, T test P vs. vehicle: end of study
[1] = tested on: GCC-expressing cells (T84 cells compared to MCF-7 cells; vector control cells); assay: Internalization assay (immunofluorescence microscopy); assay type: cell-based, human; details: 10 μg/ml, 37° C.
Experimental: Internalization of anti-GCC antibody molecules was tested in both GCC-expressing cells and vector control cells, using immunofluorescence microscopy. Cells were grown on coverslips and placed on ice for 10 minutes prior to incubation with 10 μg/ml antibody in cold culture medium for 20 minutes on ice. For internalization, antibody-containing medium was replaced with fresh culture medium and the cells were shifted to 37° C. for 2-3 hours or maintained on ice. After rinsing in PBS and a brief fixation in 4% paraformaldehyde at room temperature, cells were permeabilized for 15 min in 0/5% TRITON X-100. The localization of the test antibody was determined using a fluorescently labeled anti-IgG antibody by laser scanning confocal microscopy. Antibody molecules localized to the cell surface of GCC-expressing cells when on ice.
Most of the antibodies generated herein were tested in a number of the assays described above. (T84=human colon tumor cells, MCF7=human breast tumor cells, WB=western blot, IP=immunoprecipitation, IHC=immunohistochemistry; internalization used T84 cells compared to MCF-7 cells)

GCC-ECD-Fc (TOK107-hIg) = assay: BIACORE T100 affinity measurement; assay type: binding, human; details: for ka (M^−1s^−1) / kd (s^−1): Avg. (95% Conf. Int.); for ka / kd: single replicates, immobilized mAb, 22° C.
Chain of GCC-ECD-Fc (TOK107-hIg) (as listed by the source): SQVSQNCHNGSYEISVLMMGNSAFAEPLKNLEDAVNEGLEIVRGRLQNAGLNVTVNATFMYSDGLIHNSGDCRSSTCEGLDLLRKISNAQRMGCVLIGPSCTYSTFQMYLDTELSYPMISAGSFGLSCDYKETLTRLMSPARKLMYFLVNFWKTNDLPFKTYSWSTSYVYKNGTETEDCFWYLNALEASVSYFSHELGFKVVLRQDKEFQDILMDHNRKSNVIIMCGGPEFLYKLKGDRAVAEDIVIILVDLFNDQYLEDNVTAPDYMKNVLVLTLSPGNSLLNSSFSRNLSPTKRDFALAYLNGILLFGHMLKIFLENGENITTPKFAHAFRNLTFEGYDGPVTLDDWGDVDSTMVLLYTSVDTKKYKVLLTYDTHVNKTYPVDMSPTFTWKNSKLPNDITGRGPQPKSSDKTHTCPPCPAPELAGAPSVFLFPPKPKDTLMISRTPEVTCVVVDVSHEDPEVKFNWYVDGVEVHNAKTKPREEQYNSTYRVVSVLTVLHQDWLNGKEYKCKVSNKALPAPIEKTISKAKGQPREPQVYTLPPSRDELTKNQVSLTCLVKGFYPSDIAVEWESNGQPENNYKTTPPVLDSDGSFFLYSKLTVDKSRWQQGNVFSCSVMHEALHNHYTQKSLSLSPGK
Experimental: Step 1: MAb 5F9 (Prep A) was diluted to 20 μg/mL in 10 mM sodium acetate, pH 4.0 and Reference 5F9 MAb (Prep B) was diluted to 10 μg/mL in 10 mM sodium acetate, pH 4.0. Each mAb was covalently immobilized to several CM4 BIACORE chips using standard amine coupling. For each CM4 chip prepared, Prep A 5F9 was immobilized over two flow cells at around 75-100 RU while Prep B 5F9 was immobilized to one flow cell at around 70-80 RU. The remaining fourth flow cell of each CM4 chip was used as the reference flow cell.
Step 2: The stock concentration of GCC-ECD-Fc (TOK107-hIg) was determined using the methods detailed by Pace et al. in Protein Science, 4:2411 (1995), and Pace and Grimsley in Current Protocols in Protein Science 3.1.1-3.1.9 (2003).
Step 3: For each prepared CM4 chip described in Step 1, GCC-ECD-Fc was injected for 2 minutes at a concentration range of 202 nM-1.6 nM (2× serial dilution) followed by a 7 minute dissociation. Samples were randomly injected in triplicate with several buffer inject cycles interspersed for double referencing. […] A flow rate of 100 μL/min was used for all experiments and all surfaces were regenerated with a 20 second pulse of 10 mM Glycine-HCl (pH 2.0). All samples were prepared in the running buffer which was Hepes-buffered saline, 0.005% polysorbate 20, pH 7.4 (HBS-P) with 100 μg/mL of BSA added.
Step 4: All sensorgram (plot of surface plasmon resonance vs time) data were processed with Scrubber 2.0 software (BioLogic Software, Campbell, Australia) and globally fit to a 1:1 interaction model including a term for the mass transport constant km using CLAMP™ software (Myszka and Morton Trends Biochem. Sci. 23:149-150 (1998)).
The 1:1 model provided a very good fit to the data as long as the mAb immobilization levels were kept low enough so that the Rmax resulting from the global analysis of the sensorgram data was at least below 12 RU for each surface. […] Data from two flow cells of GCC-ECD-Fc binding to Prep A 5F9 from the same CM4 chip were simultaneously fit whenever possible, however. […] This isn't surprising due to the fact that GCC-ECD-Fc is a bivalent construct and a higher surface density of immobilized mAb most likely increases the probability that the GCC-ECD-Fc binds avidly to the surface. Replicates reported for this study include only those data that fit well to the 1:1 interaction model. The resulting KD's and rate constants of all replicates for Prep A 5F9 and the Prep B reference mAb are listed in Table 9 and Table 10, respectively.

[2] = biological target: T1, GCC ECD truncation mutants expressed in 293 cells (Homo sapiens, UniProt P25092); assay: Binding to GCC ECD truncation mutants (IP / Western blot); details: Δ1-32
T1 construct: Truncation mutants of the GCC ECD were generated (FL mature peptide and 8 truncations); expressed in transfected cells; host or cells: 293 cells (lysates, immunoprecipitation then anti-FLAG western blot)
T1 sequence (P25092 33-430, stated change not applied): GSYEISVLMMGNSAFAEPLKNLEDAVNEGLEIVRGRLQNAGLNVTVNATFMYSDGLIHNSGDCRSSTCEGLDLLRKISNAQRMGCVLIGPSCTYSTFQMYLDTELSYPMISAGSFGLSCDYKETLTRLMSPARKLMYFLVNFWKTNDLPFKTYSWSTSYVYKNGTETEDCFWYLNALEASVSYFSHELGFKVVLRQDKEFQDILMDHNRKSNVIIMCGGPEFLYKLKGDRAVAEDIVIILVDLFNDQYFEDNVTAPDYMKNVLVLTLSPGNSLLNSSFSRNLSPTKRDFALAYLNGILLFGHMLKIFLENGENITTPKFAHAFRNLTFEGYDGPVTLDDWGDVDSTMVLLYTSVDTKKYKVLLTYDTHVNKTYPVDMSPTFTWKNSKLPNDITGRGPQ

5F9: Human anti-GCC mAb (IgG2, kappa) of hybridoma 5F9, ATCC PTA-8132; VH SEQ ID NO:18, VL SEQ ID NO:20; also engineered as IgG1
Lung weight, T test P vs. vehicle (CT26 hGCC/luc #32 cells; 10 mg/kg): < 0.01 | In vivo MRI of lungs (CT26 hGCC/luc #32 cells; 40 mg/kg): normal lung presentation was seen without evidence of tumor | T/C (treatment/control) (CT26 hGCC/luc #32 cells; 40 mg/kg and 10 mg/kg, 1×10^5 cells/mouse, day 34p.i, vs vehicle): 0.04 to 0.05 | Lung weight, T test P vs. vehicle (CT26 hGCC/luc #32 cells; 40 mg/kg): < 0.05 | T/C compared to the 209 group (CT26 hGCC/luc #32 cells; 1×10^5 cells/mouse, day 34p.i): 0.18 to 0.14 | Benefit in 5×10^5 groups (CT26 hGCC/luc #32 cells; 5×10^5 cells/mouse): No benefit was seen | Internalization (localization of antibody by confocal microscopy) [1]: punctuate staining within the cell membrane, indicative of internalization | ka (M^−1s^−1) (GCC-ECD-Fc (TOK107-hIg); listed as Prep A 5F9): 1.10 (0.13) × 10^5 M^−1s^−1 | kd (s^−1) (GCC-ECD-Fc (TOK107-hIg); listed as Prep A 5F9): 1.46 (0.59) × 10^−5 s^−1 | ka (M^−1s^−1) (GCC-ECD-Fc (TOK107-hIg); listed as Prep B 5F9): 1.07 (0.25) × 10^5 M^−1s^−1 | kd (s^−1) (GCC-ECD-Fc (TOK107-hIg); listed as Prep B 5F9): 1.13 (0.54) × 10^−5 s^−1 | ka (GCC-ECD-Fc (TOK107-hIg); listed as Prep A 5F9): 96400 M⁻¹ s⁻¹ and 106000 M⁻¹ s⁻¹ and 120000 M⁻¹ s⁻¹ and 107000 M⁻¹ s⁻¹ and 122000 M⁻¹ s⁻¹ | kd (GCC-ECD-Fc (TOK107-hIg); listed as Prep A 5F9): 1.77e-05 s⁻¹ and 1.19e-05 s⁻¹ and 1.1e-05 s⁻¹ and 2.15e-05 s⁻¹ and 1.11e-05 s⁻¹ | ka (GCC-ECD-Fc (TOK107-hIg); listed as Prep B 5F9): 96800 M⁻¹ s⁻¹ and 120000 M⁻¹ s⁻¹ and 90900 M⁻¹ s⁻¹ and 121000 M⁻¹ s⁻¹ | kd (GCC-ECD-Fc (TOK107-hIg); listed as Prep B 5F9): 7.64e-06 s⁻¹ and 1.24e-05 s⁻¹ and 9.57e-06 s⁻¹ and 1.54e-05 s⁻¹ | Binding to GCC ECD truncation mutant [2]: binds cells with the Δ1-32 mutation
